Experimental data from patent US11285144B2, “Use of CDK8 inhibitors to treat diseases of inflammation and autoimmunity” (THE BROAD INSTITUTE, INC., priority 2016, dated 2022).
“Also recorded” adds a separate entry of the source.

Legend:
[1] = test system: Zymosan A-stimulated BMDCs; assay: Cytokine production by Zymosan A-stimulated BMDCs; format: cell-based, mouse
From the text: Towards the goal of identifying new mechanisms of IL-10 regulation, 59,346 small molecules were screened for the ability to enhance IL-10 production by activated bone marrow-derived dendritic cells (BMDCs) using a high-throughput assay developed previously (Sundberg et al., PNAS 111:12468-12473, 2014). Compounds were derived from both commercial collections and structurally and skeletally diverse libraries prepared by diversity-oriented synthesis (DOS). More than 60 hit compounds were identified that reproducibly enhance IL-10 production in a concentration-dependent manner (Table 1). Three distinct chemotypes were prioritized for follow-up based on potency and an initial analysis of structure-activity relationship (SAR) with respect to core scaffold, stereochemistry and side chains (FIG. 2a).
The pyridinyl tetrahydroquinoline BRD6989 (10) emerged as a prioritized hit in the screen (FIG. 2a and Table 2). […] Thus, BRD6989 enhances IL-10 production in activated human and murine macrophages and dendritic cells by a mechanism that appears most pronounced following stimulation of toll-like receptors-7 (TLR7) and TLR8 by R848.

BMDMs = assay: Transcriptional profiling of stimulated BMDMs; format: cell-based, mouse
Procedure: To define systematically the role of CDK8 during innate immune activation, the transcriptional responses elicited by dCA or BRD6989 following stimulation of BMDMs were profiled with a panel of 10 microbial ligands or Sendai virus for time points from 15 min to 4 hours. BMDMs were chosen for these experiments because, like human and mouse DCs, they upregulate IL-10 in response to CDK8 inhibition (FIG. 5c), and they have been previously studied using the multiplexed pathway reporter assay described below (O'Connell, et al., Cell Syst 2:323-34, 2016). In this experiment, the transcriptional responses elicited by BRD6989 and dCA were highly correlated (FIG. 12a), again supporting CDK8 as a principle cellular target of BRD6989.

STAT1 = STAT1 phosphorylation in IFNγ-stimulated BMDCs; format: cell-based, mouse; conditions: IFNγ-induced
From the text: Together, these kinase profiling, binding assay, enzyme inhibition and cell-based data identify the Mediator-associated kinases CDK8, and to a lesser degree CDK19, as molecular targets of BRD6989.

[2] = test system: naïve, splenic CD4+ T cells; assay: IL-10 production during ex vivo differentiation of Tregs; format: cell-based
Procedure: FIG. 10—Cellular activities of CDK8 inhibitors. […] (b) Effect of CDK7 inhibitor THZ1 on viability and IL-10 production of R848-stimulated BMDCs (each point corresponds to mean±S.D.; n=4 biological replicates from 1 independent experiment). (c) IL-10 levels were quantified in tissue culture media generated during differentiation of naïve, splenic CD4+ T cells into Treg's in the presence of dCA (0.1 μM) or BRD6989 (5 μM) (each point correspond to mean±S.D.; n=3 biological replicates from 1 independent experiment; *, P<0.05; n.s., not significant using one-way ANOVA with Dunnett's post-test). Data from all panels is representative of at least 2 independent experiments.
Pre-treatment with these CDK8/19 inhibitors recapitulated the IL-10 potentiating activity of BRD6989 in both BMDCs (FIG. 9b) along with human DCs derived from two independent donors in the context of R848 stimulation (FIGS. 9c and 10a).

EC50 ([1]; Mus musculus, BMDC, pre-treatment 48 hr, Zymosan A 18 hr, read-out: IL-10 production EC50): ~1 µM
SMILES: CC1CCc2nc(N)c(C#N)c(-c3cccnc3)c2C1 (centres unmarked) [BRD6989]
production of IL-12p40 ([1]; Zymosan A-induced): largely unchanged | production of TNFα ([1]; Zymosan A-induced): largely unchanged | release of IL-6 ([1]; Zymosan A-induced): suppressed | production of IL-1β ([1]; Zymosan A-stimulated / activated BMDCs): largely unchanged | IL-1β production ([1]; stimulation with R848 or Zymosan A): minimally elevates IL-1β production | expression of interferon-inducible genes Ifit2, Cxcl10 and Rsad2 (BMDMs): reduced expression of the interferon-inducible genes Ifit2, Cxcl10 and Rsad2 | JAK-mediated phosphorylation of STAT1 Y701 (STAT1): did not affect | phosphorylation of STAT1 at S727 (STAT1): inhibited; also recorded: suppresses phosphorylation | phosphorylation of STAT1 at S727 (STAT1; listed as BRD-6989): Dose dependent inhibition of CDK8 dependent | IL-10 production during Treg differentiation [2]: neither dCA nor BRD6989 dramatically increased IL-10 production
